Test results taken from ChEMBL document CHEMBL4831492, “Design and synthesis of 2-(2-isonicotinoylhydrazineylidene)propanamides as InhA inhibitors with high antitubercular activity” (Eur J Med Chem, 2021).
Values after ≈ are worked out from the molar mass of the structure shown. Active and inactive are the calls of the source. The calls are words filed in the database; no cut-off is given here.

Legend:
[1] = tested on: Mycobacterium tuberculosis; assay: Antimycobacterial activity against drug susceptible Mycobacterium tuberculosis H37Rv assessed as minimal inhibitory concentration required for complete inhibition of mycobacterial growth incubated for 21 days; assay type: functional; conditions: 504 h, time 21 day
Mycobacterium kansasii [2] = assay: Antimycobacterial activity against drug resistant Mycobacterium kansasii 6509/96 assessed as minimal inhibitory concentration required for complete inhibition of mycobacterial growth incubated for 21 days; assay type: functional; conditions: 6509/96, 504 h, time 21 day
Mycobacterium kansasii [3] = assay: Antimycobacterial activity against drug resistant Mycobacterium kansasii 235/80 assessed as minimal inhibitory concentration required for complete inhibition of mycobacterial growth incubated for 14 days; assay type: functional; conditions: 235/80, 336 h, time 14 day
Mycobacterium kansasii [4] = assay: Antimycobacterial activity against drug resistant Mycobacterium kansasii 235/80 assessed as minimal inhibitory concentration required for complete inhibition of mycobacterial growth incubated for 7 days; assay type: functional; conditions: 235/80, 168 h, time 7 day
[5] = Selectivity index, ratio of CC50 for cytotoxicity against human HepG2 cells to MIC for antimycobacterial activity against drug susceptible Mycobacterium […]; assay type: toxicity, cell-based; conditions: read-out: Selectivity Index
[6] = tested on: Mycobacterium tuberculosis; assay: Antimycobacterial activity against drug susceptible Mycobacterium tuberculosis H37Rv assessed as minimal inhibitory concentration required for complete inhibition of mycobacterial growth incubated for 14 days; assay type: functional; conditions: 336 h, time 14 day
HepG2 [7] = assay: Cytotoxicity against human HepG2 cells assessed as reduction in cell viability incubated overnight followed by compound washout by MTT assay; assay type: cell-based
Mycobacterium kansasii [8] = assay: Antimycobacterial activity against drug resistant Mycobacterium kansasii 6509/96 assessed as minimal inhibitory concentration required for complete inhibition of mycobacterial growth incubated for 14 days; assay type: functional; conditions: 6509/96, 336 h, time 14 day
Mycobacterium kansasii [9] = assay: Antimycobacterial activity against drug resistant Mycobacterium kansasii 235/80 assessed as minimal inhibitory concentration required for complete inhibition of mycobacterial growth incubated for 21 days; assay type: functional; conditions: 235/80, 504 h, time 21 day
[10] = Selectivity index, ratio of CC50 for cytotoxicity against human HepG2 cells to MIC for antimycobacterial activity against drug susceptible Mycobacterium tuberculosis H37Rv; assay type: toxicity, cell-based; conditions: read-out: Selectivity Index
Mycobacterium kansasii [11] = assay: Antimycobacterial activity against drug resistant Mycobacterium kansasii 6509/96 assessed as minimal inhibitory concentration required for complete inhibition of mycobacterial growth incubated for 7 days; assay type: functional; conditions: 6509/96, 168 h, time 7 day
Mycobacterium avium [12] = assay: Antimycobacterial activity against drug resistant Mycobacterium avium 330/88 assessed as inhibition of mycobacterial growth at 125 uM incubated for 21 days; assay type: functional, organism-based; conditions: time 21.0 day
Mycobacterium avium [13] = assay: Antimycobacterial activity against drug resistant Mycobacterium avium 330/88 assessed as inhibition of mycobacterial growth at 125 uM incubated for 14 days; assay type: functional, organism-based; conditions: time 14.0 day
HepG2 [14] = assay: Cytostatic activity in human HepG2 cells assessed as reduction in cell viability incubated overnight followed by compound washout and further incubated for 72 hrs in medium containing serum by MTT assay; assay type: functional, cell-based; conditions: HepG2, 72 h
Mycobacterium avium [15] = assay: Antimycobacterial activity against drug resistant Mycobacterium avium 330/88 assessed as minimal inhibitory concentration required for complete inhibition of mycobacterial growth incubated for 14 days; assay type: functional; conditions: 330/88, 336 h, time 14 day
Mycobacterium avium [16] = assay: Antimycobacterial activity against drug resistant Mycobacterium avium 330/88 assessed as minimal inhibitory concentration required for complete inhibition of mycobacterial growth incubated for 21 days; assay type: functional; conditions: 330/88, 504 h, time 21 day
Mycobacterium avium [17] = assay: Antimycobacterial activity against drug resistant Mycobacterium avium 330/88 assessed as inhibition of mycobacterial growth at 500 uM incubated for 14 days; assay type: functional, organism-based; conditions: time 14.0 day
Mycobacterium avium [18] = assay: Antimycobacterial activity against drug resistant Mycobacterium avium 330/88 assessed as inhibition of mycobacterial growth at 500 uM incubated for 21 days; assay type: functional, organism-based; conditions: time 21.0 day

With C/C(=N\NC(=O)c1ccncc1)C(=O)Nc1ccc(C(F)(F)F)cc1 the MIC [1] was ≤ 0.03 µM, the MIC (Mycobacterium kansasii [2]) was 4 µM (≈ 1.4 µg/mL) and the MIC (Mycobacterium kansasii [3]) was 16 µM (≈ 5.6 µg/mL). The MIC (Mycobacterium kansasii [4]) was 8 µM (≈ 2.8 µg/mL), the selectivity ratio [5] was > 12.5 and the MIC [6] was ≤ 0.03 µM. The IC50 (HepG2 [7]) was > 50 µM, the MIC (Mycobacterium kansasii [8]) was 4 µM (≈ 1.4 µg/mL) and the MIC (Mycobacterium kansasii [9]) was 32 µM (≈ 11.2 µg/mL). For the same compound, the selectivity ratio [10] was > 1670, the MIC (Mycobacterium kansasii [11]) was 2 µM (≈ 0.701 µg/mL) and the Activity (Mycobacterium avium [12]) was “inactive”. The Activity (Mycobacterium avium [13]) was “inactive” and the IC50 (HepG2 [14]) was > 50 µM.

C/C(=N\NC(=O)c1ccncc1)C(=O)Nc1cccc(I)c1 gave an MIC [1] of 0.5 µM (≈ 0.204 µg/mL), an MIC (Mycobacterium kansasii [2]) of 8 µM (≈ 3.27 µg/mL) and an MIC [6] of 0.125 µM (≈ 0.051 µg/mL). For the same compound, the MIC (Mycobacterium kansasii [8]) was 8 µM (≈ 3.27 µg/mL), the MIC (Mycobacterium avium [15]) was > 1000 µM and the MIC (Mycobacterium kansasii [11]) was 4 µM (≈ 1.63 µg/mL). The MIC (Mycobacterium avium [16]) was > 1000 µM.

Work on C/C(=N\NC(=O)c1ccncc1)C(=O)Nc1ccc(Br)cc1 yielded an MIC [1] of 0.125 µM (≈ 0.0451 µg/mL), an MIC (Mycobacterium kansasii [2]) of 16 µM (≈ 5.78 µg/mL) and an MIC (Mycobacterium kansasii [3]) of 16 µM (≈ 5.78 µg/mL). The MIC (Mycobacterium kansasii [4]) was 16 µM (≈ 5.78 µg/mL), the selectivity ratio [5] was > 3.12 and the MIC [6] was 0.06 µM (≈ 0.0217 µg/mL). For the same compound, the IC50 (HepG2 [7]) was > 50 µM, the MIC (Mycobacterium kansasii [8]) was 8 µM (≈ 2.89 µg/mL) and the MIC (Mycobacterium avium [15]) was 250 µM (≈ 90.3 µg/mL). The MIC (Mycobacterium kansasii [9]) was 16 µM (≈ 5.78 µg/mL), the selectivity ratio [10] was > 400 and the MIC (Mycobacterium kansasii [11]) was 4 µM (≈ 1.44 µg/mL). For the same compound, the MIC (Mycobacterium avium [16]) was 250 µM (≈ 90.3 µg/mL) and the IC50 (HepG2 [14]) was > 50 µM.

For C/C(=N\NC(=O)c1ccncc1)C(=O)Nc1cccc(OC(F)(F)F)c1, the MIC [1] was 0.5 µM (≈ 0.183 µg/mL), the MIC (Mycobacterium kansasii [2]) was 8 µM (≈ 2.93 µg/mL) and the Activity (Mycobacterium avium [17]) was “inactive”. The MIC [6] was 0.125 µM (≈ 0.0458 µg/mL), the MIC (Mycobacterium kansasii [8]) was 8 µM (≈ 2.93 µg/mL) and the Activity (Mycobacterium avium [18]) was “inactive”. The MIC (Mycobacterium kansasii [11]) was 4 µM (≈ 1.47 µg/mL).

With C/C(=N\NC(=O)c1ccncc1)C(=O)Nc1cccc(C(F)(F)F)c1 the MIC [1] was 0.25 µM (≈ 0.0876 µg/mL), the MIC (Mycobacterium kansasii [2]) was 8 µM (≈ 2.8 µg/mL) and the MIC [6] was 0.125 µM (≈ 0.0438 µg/mL). For the same compound, the MIC (Mycobacterium kansasii [8]) was 4 µM (≈ 1.4 µg/mL), the MIC (Mycobacterium avium [15]) was > 1000 µM and the MIC (Mycobacterium kansasii [11]) was 2 µM (≈ 0.701 µg/mL). For the same compound, the MIC (Mycobacterium avium [16]) was > 1000 µM.

For C/C(=N\NC(=O)c1ccncc1)C(=O)Nc1cc(C(F)(F)F)cc(C(F)(F)F)c1, the MIC [1] was 1 µM (≈ 0.418 µg/mL), the MIC (Mycobacterium kansasii [2]) was 32 µM (≈ 13.4 µg/mL) and the MIC [6] was 1 µM (≈ 0.418 µg/mL). For the same compound, the MIC (Mycobacterium kansasii [8]) was 32 µM (≈ 13.4 µg/mL), the MIC (Mycobacterium avium [15]) was > 1000 µM and the MIC (Mycobacterium kansasii [11]) was 32 µM (≈ 13.4 µg/mL). The MIC (Mycobacterium avium [16]) was > 1000 µM.

C/C(=N\NC(=O)c1ccncc1)C(=O)Nc1cccc(Br)c1 gave an MIC [1] of 0.125 µM (≈ 0.0451 µg/mL), an MIC (Mycobacterium kansasii [2]) of 8 µM (≈ 2.89 µg/mL) and an MIC [6] of 0.125 µM (≈ 0.0451 µg/mL). For the same compound, the MIC (Mycobacterium kansasii [8]) was 8 µM (≈ 2.89 µg/mL), the MIC (Mycobacterium avium [15]) was > 1000 µM and the MIC (Mycobacterium kansasii [11]) was 4 µM (≈ 1.44 µg/mL). For the same compound, the MIC (Mycobacterium avium [16]) was > 1000 µM.

For C/C(=N\NC(=O)c1ccncc1)C(=O)Nc1cccc(F)c1, the MIC [1] was 0.25 µM (≈ 0.0751 µg/mL), the MIC (Mycobacterium kansasii [2]) was 8 µM (≈ 2.4 µg/mL) and the Activity (Mycobacterium avium [17]) was “inactive”. The MIC [6] was 0.25 µM (≈ 0.0751 µg/mL), the MIC (Mycobacterium kansasii [8]) was 4 µM (≈ 1.2 µg/mL) and the Activity (Mycobacterium avium [18]) was “inactive”. It also gave an MIC (Mycobacterium kansasii [11]) of 2 µM (≈ 0.601 µg/mL).

For C/C(=N\NC(=O)c1ccncc1)C(=O)Nc1cc(Cl)c(Cl)c(Cl)c1, the MIC [1] was 1 µM (≈ 0.386 µg/mL), the MIC (Mycobacterium kansasii [2]) was 32 µM (≈ 12.3 µg/mL) and the MIC (Mycobacterium kansasii [3]) was 125 µM (≈ 48.2 µg/mL). It also gave an MIC (Mycobacterium kansasii [4]) of 62.5 µM (≈ 24.1 µg/mL), an MIC [6] of 0.5 µM (≈ 0.193 µg/mL) and an MIC (Mycobacterium kansasii [8]) of 16 µM (≈ 6.17 µg/mL). For the same compound, the MIC (Mycobacterium avium [15]) was > 250 µM, the MIC (Mycobacterium kansasii [9]) was 250 µM (≈ 96.4 µg/mL) and the MIC (Mycobacterium kansasii [11]) was 16 µM (≈ 6.17 µg/mL). For the same compound, the MIC (Mycobacterium avium [16]) was > 250 µM.

In the case of C/C(=N\NC(=O)c1ccncc1)C(=O)Nc1ccc(Cl)cc1, the MIC [1] is reported as 0.25 µM (≈ 0.0792 µg/mL), the MIC (Mycobacterium kansasii [2]) is reported as 16 µM (≈ 5.07 µg/mL) and the MIC (Mycobacterium kansasii [3]) is reported as 16 µM (≈ 5.07 µg/mL). For the same compound, the MIC (Mycobacterium kansasii [4]) was 16 µM (≈ 5.07 µg/mL), the selectivity ratio [5] was > 3.12 and the MIC [6] was 0.25 µM (≈ 0.0792 µg/mL). For the same compound, the IC50 (HepG2 [7]) was > 50 µM, the MIC (Mycobacterium kansasii [8]) was 8 µM (≈ 2.53 µg/mL) and the MIC (Mycobacterium avium [15]) was 250 µM (≈ 79.2 µg/mL). The MIC (Mycobacterium kansasii [9]) was 16 µM (≈ 5.07 µg/mL), the selectivity ratio [10] was > 200 and the MIC (Mycobacterium kansasii [11]) was 4 µM (≈ 1.27 µg/mL). The MIC (Mycobacterium avium [16]) was 250 µM (≈ 79.2 µg/mL) and the IC50 (HepG2 [14]) was > 50 µM.
